PubChem BioAssay (NCI)
Where “and” joins values, the source holds several entries; their conditions need not be identical. Equal values may be shown once.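 Growth conditions: 96-well plates. Treatment: test compound, 48 hours, 5 concentrations. Analysis: linear interpolation between bracketing concentrations; unreached endpoints set to highest concentration. At the GI50, growth is halved. TGI: concentration producing complete growth inhibition.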

What was measured:
Test in all cases: inhibition of tumour cell growth, NCI panel, 48 h
[1] = test system: OVCAR-5 ovarian
[2] = test system: 786-0 renal
[3] = test system: DU-145 prostate
[4] = test system: MOLT-4 leukemia
[5] = test system: SK-MEL-5 melanoma
[6] = test system: IGROV1 ovarian
[7] = test system: UO-31 renal
[8] = test system: SK-MEL-2 melanoma
[9] = test system: OVCAR-3 ovarian
[10] = test system: T-47D breast

Compound	GI50 [1]	TGI [1]	GI50 [2]	TGI [2]	GI50 [3]	TGI [3]	GI50 [4]	TGI [4] [µM]	GI50 [5]	TGI [5]	GI50 [6]	TGI [6] [µM]	GI50 [7]	TGI [7] [µM]	GI50 [8]	TGI [8]	GI50 [9]	TGI [9]	GI50 [10]	TGI [10]
CC(c1ccccc1)[C@@H](C(=O)Nc1ccc(I)cc1F)N1C(=O)N[C@H](c2ccc(OC[C@H](O)CO)cc2)C1=O (stereo partly specified)	1.03 µM	> 25 µM	> 14.4 µM	> 25 µM	15.3 µM	> 25 µM	12.5 µM	> 25	0.85 µM	> 25 µM	2.04 µM	> 25	9.91 µM	> 25	0.158 µM	1.51 µM	> 21.3 µM	> 25 µM	10.2 µM	> 25 µM
Cc1ccc(Cl)cc1NC(=O)c1cc2ccccc2cc1O	0.992 µM	10.7 µM	0.507 µM	1.94 µM	0.479 µM	> 24.7 µM	0.558 µM	3.42	0.277 µM	0.824 µM	0.189 µM	3.95	0.201 µM	1.47	0.19 µM	0.707 µM	0.313 µM	1.02 µM	1.14 µM	5.06 µM
COc1ccc(Cl)cc1Nc1nc(C(F)(F)F)ccc1C(=O)N/N=C/c1cccnc1	–	–	2.63 µM	> 100 µM	7.22 µM	> 100 µM	1.66 µM	> 100	2.64 µM	65.3 µM	4.33 µM	> 100	4.1 µM	> 100	3.5 µM	> 100 µM	0.665 µM	6.82 µM	2.12 µM	> 100 µM
Nc1nnnc2nc[nH]c12	0.623 µM	> 100 µM	0.96 µM	> 100 µM	0.8 µM	> 100 µM	2.62 µM	> 100	2.02 µM	8.22 µM	4.75 µM	> 100	0.523 µM	> 100	1.06 µM	42.4 µM	2.53 µM	> 100 µM	0.297 µM	2.55 µM
COc1cccc(C2=C(c3cn(C)c4cc(F)ccc34)C(=O)NC2=O)c1	> 25 µM	> 25 µM	> 18.7 µM	> 25 µM	> 25 µM	> 25 µM	11.1 µM	> 25	11 µM	> 21 µM	> 25 µM	> 25	9.19 µM	> 25	> 19.4 µM	> 25 µM	> 18.7 µM	> 25 µM	15.3 µM	> 25 µM
Nc1cc(C(F)(F)F)c(-c2cc(N3CCOCC3)nc(N3CCOCC3)n2)cn1	0.692 µM and 0.848 µM	7.16 µM and 8.7 µM	1.65 µM and 2.1 µM	9.77 µM and 8.63 µM	1.22 µM and 1.79 µM	9.96 µM and > 33.1 µM	0.883 µM and 0.814 µM	> 100	0.797 µM and 0.587 µM	3.05 µM and 2.56 µM	0.227 µM and 0.28 µM	–	0.309 µM and 0.527 µM	–	0.678 µM and 0.385 µM	3.39 µM and 2.27 µM	0.919 µM and 1.03 µM	4.71 µM and 4.45 µM	0.145 µM and 0.273 µM	0.77 µM and 1.31 µM
C(=Nc1cnc2ccccc2c1)c1ccc2ccccc2n1	–	> 100 µM	–	> 100 µM	–	> 100 µM	–	> 100	–	> 100 µM	–	> 100	–	> 100	–	> 100 µM	–	> 100 µM	–	> 100 µM
O=Cc1c(-c2ccccc2)[nH]c2ccccc2c1=O	–	> 100 µM	–	> 100 µM	–	> 100 µM	–	> 100	–	53.9 µM	–	> 100	–	> 100	–	> 100 µM	–	> 100 µM	–	> 100 µM
Cc1nc(-c2cnc(NC(C)C)n(C)c2=O)ccc1Oc1ccnc(-c2cnn(C)c2)c1	19.4 µM	> 100 µM	25.7 µM	> 100 µM	33.2 µM	> 100 µM	5.16 µM	35.2	4.59 µM	19.5 µM	15 µM	> 100	15.7 µM	> 100	12 µM	52.8 µM	16.1 µM	> 100 µM	7.39 µM	99.7 µM
CCOc1ccc2c(c1)CN(Cc1ccc(Cl)cc1)CO2	17.9 µM	46.2 µM	14.8 µM	30.1 µM	22.8 µM	53.2 µM	19.3 µM	67.5	15.2 µM	28.9 µM	23 µM	63.7	8.82 µM	43.8	18 µM	34 µM	21.6 µM	51.1 µM	17.8 µM	52.7 µM
COc1cccc(/C=C/c2ccnc3ccccc23)c1OC	–	> 10 µM	–	> 10 µM	–	> 10 µM	–	> 10	–	> 10 µM	–	> 10	–	> 10	–	> 10 µM	–	> 10 µM	–	> 10 µM
C/C(=N/O)c1ccc2c(c1)/C(=N/O)c1ccccc1-2	22.8 µM	53.5 µM	20.5 µM	38.5 µM	26.4 µM	71 µM	20.2 µM	49.4	17 µM	31.2 µM	22.3 µM	41.1	18.7 µM	38.2	23.1 µM	48 µM	25.5 µM	57.7 µM	24 µM	52.7 µM
CCCCN=C(N)c1ccc(N2CCCN(c3ccc(C(N)=NCCCC)cc3)CC2)cc1	45.7 µM	> 100 µM	> 74.6 µM	> 100 µM	25.1 µM	> 100 µM	25.2 µM	> 100	5.04 µM	21.7 µM	24.5 µM	> 85.9	> 66.1 µM	> 100	12.3 µM	44.6 µM	8.73 µM	> 81.7 µM	10.9 µM	> 100 µM
